In US11491161B2, “Methods and compositions for treatment of pulmonary hypertension and other lung disorders” (Respira Therapeutics, Inc., priority 2016, dated 2022):
Where a name gives a salt, the structure may show the parent alone.

What was measured:
[1] = particle size distribution of micronized drug substance by laser diffraction; assay type: physicochemical; settings: hydrochloride trihydrate
Source text: The coarse drug substance as received was forced into the milling chamber by a compressed air stream, through a Venturi tube with a higher pressure (P_vent) and metered into the mill at the desired rate (F-feed). Nitrogen was used as grinding gas and adjusted to the desired pressure (P_grind) to mill the drug particles. The micronized material was characterized for process yield gravimetrically, particle size distribution (PSD) by laser diffraction (Malvern Masersizer) and moisture content by Karl Fischer (KF) analysis. A finer micronized drug substance PSD as evidenced with smaller volume weighted median diameter (Dv50=1.8 μm) and linear interpolated size of the 90th percentile (Dv90=4.5 μm) was obtained using higher Venturi (P_Vent=7.5 bar) and grinding pressures (P_Grind=6 bar) as compared with a batch with a slightly coarser PSD of […] when using the jet mill operated at lower pressures (ca. P_Vent=5.5 bar and P_Grind=4.5 bar) (Table 1).

[2] = octanol-water partition coefficient; cited from earlier work
plasma proteins = settings: cited from earlier work
[3] = in vivo; cited from earlier work
PDE5 enzyme = PDE5 enzyme (Homo sapiens, UniProt O76074); settings: cited from earlier work
[4] = in vivo; cited from earlier work; remark: listed apart in the source
[5] = inhaled, following pulmonary administration; peak at first time-point tested; cited from earlier work
human patients with PAH = settings: 5 mg orally twice per day (b.i.d.); cited from earlier work

Compound	log P [2]	protein binding in the systemic circuit (plasma proteins)	half-life at the catalytic site on the PDE enzyme (PDE5 enzyme)	further results
CCCc1nc(C)c2c(=O)[nH]c(-c3cc(S(=O)(=O)N4CCN(CC)CC4)ccc3OCC)nn12 [Batch 1, vardenafil hydrochloride trihydrate]	–	–	–	PSD by Laser diffraction Dv10 [1]: 0.5 μm; PSD by Laser diffraction Dv50 [1]: 1.8 μm; PSD by Laser diffraction Dv90 [1]: 4.5 μm; PSD by Laser diffraction Span [1]: 2.2
CCCc1nc(C)c2c(=O)[nH]c(-c3cc(S(=O)(=O)N4CCN(CC)CC4)ccc3OCC)nn12 [Batch 2, vardenafil hydrochloride trihydrate]	–	–	–	PSD by Laser diffraction Dv10 [1]: 0.7 μm; PSD by Laser diffraction Dv50 [1]: 2.9 μm; PSD by Laser diffraction Dv90 [1]: 5.5 μm; PSD by Laser diffraction Span [1]: 1.7
COc1ccc(CN=c2[nH]c(N3CCC[C@H]3CO)ncc2C(=O)NCc2ncccn2)cc1Cl [avanafil, (S)-4-[(3-chloro-4-methoxybenzyl)amino]-2-[2-(hydroxymethyl)-1-pyrrolidinyl]-N-(2-pyrimidinylmethyl)-5-pyrimidinecarboxamide]	2.6	99%	–	–
COc1ccccc1Oc1c(NS(=O)(=O)c2ccc(C(C)(C)C)cc2)nc(-c2ncccn2)nc1OCCO [bosentan]	3.7	98%	–	–
CCCCC[C@H](O)/C=C/[C@@H]1[C@H]2C/C(=C/CCCC(=O)O)O[C@H]2C[C@H]1O [epoprostenol, (5Z,9α,11α,13E,15S)-6,9-epoxy-11,15-dihydroxyprosta-5,13-dien-1-oic acid]	2.9	–	–	–
CC#CCC(C)[C@H](O)/C=C/[C@@H]1[C@H]2C/C(=C/CCCC(=O)O)C[C@H]2C[C@H]1O (stereo partly drawn) [iloprost, (E)-(3aS, 4R, 5R, 6aS)-hexahydro-5-hydroxy-4-[(E)-(3S,4RS)-3-hydroxy-4-methyl-1-octen-6-ynyl]-Δ^2(1H),Δ-pentalenevaleric acid]	4.8	–	–	duration of action [3]: about 30 min
CCCc1nn(C)c2c(=O)[nH]c(-c3cc(S(=O)(=O)N4CCN(C)CC4)ccc3OCC)nc12 [sildenafil, 1-[[3-(6,7-dihydro-1-methyl-7-oxo-3-propyl-1H-pyrazolo[4,3-d]pyrimidin-5-yl)-4-ethoxyphenyl]sulfonyl]-4-methylpiperazine]	–	96%	3 min	–
CN1CC(=O)N2[C@H](c3ccc4c(c3)OCO4)c3[nH]c4ccccc4c3C[C@@H]2C1=O [tadalafil, (6R,12aR)-2,3,6,7,12,12a-hexahydro-2-methyl-6-(1,3-benzodioxol-5-yl)-pyrazino[1′,2′:1,6]pyrido[3,4-b]indole-1,4-dione]	–	94%	7 min	–
CCCCC[C@H](O)CC[C@@H]1[C@H]2Cc3cccc(OCC(=O)O)c3C[C@H]2C[C@H]1O [treprostinil, (1R,2R,3aS,9aS)-[[2,3,3a,4,9,9a-hexahydro-2-hydroxy-1-[(3S)-3-hydroxyoctyl]-1H-benz[f]inden-5-yl]oxy]acetic acid]	4.1	–	–	oral bioavailability [4]: 18%
CCCc1nc(C)c2c(=O)nc(-c3cc(S(=O)(=O)N4CCN(CC)CC4)ccc3OCC)[nH]n12 [vardenafil, 1-[[3-(1,4-dihydro-5-methyl-4-oxo-7-propylimidazo[5,1-f][1,2,4]triazin-2-yl)-4-ethoxyphenyl]sulfonyl]-4-ethyl-piperazine]	–	93-95%	about 2 hr	tmax [5]: ≤ 2 min; safety and efficacy in PAH (human patients with PAH): safe and effective
